Test system: Subjects With Active Crohn's Disease
Assay: LDL determination, Study 5 (Crohn's disease)
Assay type: in vivo, human
Details: for [LDL] Median CFB - 10 weeks results: 200 mg q.d. (N = 130)
Description: Double-Blind, Randomized, Placebo-Controlled, Multi-Centre Study to Investigate the Efficacy and Safety of Compound 1 in Subjects With Active Crohn's Disease With Evidence of Mucosal Ulceration.
This is a double-blind, randomized, placebo-controlled, multi-centre Phase 2 study to investigate the efficacy and safety of Compound 1 administered once daily for the treatment of active CD with evidence of mucosal ulceration. The pharmacokinetics (including a PK substudy) and pharmacodynamics of Compound 1 and metabolite in CD will also be characterised.
A total of 180 eligible subjects will be randomized to receive Compound 1 or placebo in addition to their stable background treatment (eg, corticosteroids, aminosalicylates, or CD-related antibiotics). The study will consist of 2 parts, with total treatment duration of 20 weeks. Randomization in Part 1 will be stratified according the subject's previous anti-TNF exposure/response, CRP level at Screening, and oral corticosteroid use at visit Day −1.
After the first 10 weeks of treatment in Part 1, patients will be re-randomized for Part 2 as shown in the diagram below and will be stratified according to the subject's clinical response, previous anti-TNF exposure/response, and oral corticosteroid use at visit Day −1.
The following assays were conducted at Eurofins Global Central Laboratory, Bergschot 71, 4817 PA Breda, The Netherlands, and at Quest Diagnostics, Clinical Trials, Quest House, 125-135 Staines Road, Hounslow, Middlesex, TW3 3JB, United Kingdom. The assays for Study 5 were performed at BARC Europe, 3B, Industrie Park, Zwijnaarde, B-9052 Ghent, Belgium.
The determination of [LDL]-cholesterol is made using an automated method taking advantage of the selective micellary solubilization of [LDL]-cholesterol by a nonionic detergent and the interaction of a sugar compound and lipoproteins (VLDL and chylomicrons).
When a detergent is included in the enzymatic method for cholesterol determination (cholesterol esterase, cholesterol oxidase coupling reaction), the relative reactivities of cholesterol in the lipoprotein fractions increase in this order: [HDL]<chylomicrons <VLDL <[LDL]. In the presence of Mg^2+, a sugar compound markedly reduces the enzymatic reaction of the cholesterol measurement in VLDL and chylomicrons. The combination of a sugar compound with detergent enables the selective determination of [LDL]-cholesterol in serum. (Friedewald et al., 1972; Rifai et al., 1992)
Homogeneous enzymatic colorimetric assay.
In the presence of peroxidase, the hydrogen peroxide generated reacts with 4-aminoantipyrine and Sodium N-(2-hydroxy-3-sulfopropyl)-3,5-dimethoxyaniline (HSDA) to form a purple-blue dye.
The color intensity of this dye is directly proportional to the cholesterol concentration and is measured photometrically.
Human serum and plasma samples [LDL] determination was done on a Roche/Hitachi Cobas c 701/702 system which automatically calculate the analyte concentration of each sample. Samples containing precipitates are centrifuged before performing the assay.

[1] = 200 mg q.d. continued to week 20, week 2
[2] = 200 mg q.d. continued to week 20, week 4
[3] = 200 mg q.d. continued to week 20, week 6
[4] = 200 mg q.d. continued to week 20, week 10
[5] = 200 mg q.d. continued to week 20, week 12
[6] = 200 mg q.d. continued to week 20, week 16
[7] = 200 mg q.d. continued to week 20, week 20
[8] = 200 mg q.d. week 0 to 10, then 100 mg q.d. (N = 30), week 2
[9] = 200 mg q.d. week 0 to 10, then 100 mg q.d. (N = 30), week 4
[10] = 200 mg q.d. week 0 to 10, then 100 mg q.d. (N = 30), week 6
[11] = 200 mg q.d. week 0 to 10, then 100 mg q.d. (N = 30), week 10
[12] = 200 mg q.d. week 0 to 10, then 100 mg q.d. (N = 30), week 12
[13] = 200 mg q.d. week 0 to 10, then 100 mg q.d. (N = 30), week 16
[14] = 200 mg q.d. week 0 to 10, then 100 mg q.d. (N = 30), week 20
[15] = 200 mg q.d. week 0 to 10, then placebo (N = 23), week 2
[16] = 200 mg q.d. week 0 to 10, then placebo (N = 23), week 4
[17] = 200 mg q.d. week 0 to 10, then placebo (N = 23), week 6
[18] = 200 mg q.d. week 0 to 10, then placebo (N = 23), week 10
[19] = 200 mg q.d. week 0 to 10, then placebo (N = 23), week 12
[20] = 200 mg q.d. week 0 to 10, then placebo (N = 23), week 16
[21] = 200 mg q.d. week 0 to 10, then placebo (N = 23), week 20
[22] = 200 mg q.d. week 0 to 10, to 100 mg q.d. week 10 to 20, week 2
[23] = 200 mg q.d. week 0 to 10, to 100 mg q.d. week 10 to 20, week 4
[24] = 200 mg q.d. week 0 to 10, to 100 mg q.d. week 10 to 20, week 6
[25] = 200 mg q.d. week 0 to 10, to 100 mg q.d. week 10 to 20, week 10
[26] = 200 mg q.d. week 0 to 10, to 100 mg q.d. week 10 to 20, week 12

Compound: O=C(Nc1nc2cccc(-c3ccc(CN4CCS(=O)(=O)CC4)cc3)n2n1)C1CC1 [Compound 1, cyclopropanecarboxylic acid {5-[4-(1,1-dioxo-thiomorpholin-4-ylmethyl)-phenyl]-[1,2,4]triazolo[1,5-a]pyridin-2yl}-amide]
- [LDL] Median CFB - 10 weeks results (week 2): -0.050 mmol/L
- [LDL] Median CFB - 10 weeks results (week 4): -0.050 mmol/L
- [LDL] Median CFB - 10 weeks results (week 6): 0.025 mmol/L
- [LDL] Median CFB - 10 weeks results (week 10): 0.160 mmol/L
- [LDL] Mean CFB - 20 weeks results [1]: 3.14%
- [LDL] Median CFB - 20 weeks results [1]: −2.51%
- [LDL] Mean CFB - 20 weeks results [2]: 1.21%
- [LDL] Median CFB - 20 weeks results [2]: −2.16%
- [LDL] Mean CFB - 20 weeks results [3]: 0.73%
- [LDL] Median CFB - 20 weeks results [3]: −0.61%
- [LDL] Mean CFB - 20 weeks results [4]: 14.77%
- [LDL] Median CFB - 20 weeks results [4]: 8.26%
- [LDL] Mean CFB - 20 weeks results [5]: 9.98%
- [LDL] Median CFB - 20 weeks results [5]: 5.42%
- [LDL] Mean CFB - 20 weeks results [6]: 12.35%
- [LDL] Median CFB - 20 weeks results [6]: 7.42%
- [LDL] Mean CFB - 20 weeks results [7]: 11.56%
- [LDL] Median CFB - 20 weeks results [7]: 6.93%
- [LDL] Mean CFB - 20 weeks results [8]: -0.02 mmol/L
- [LDL] Median CFB - 10 weeks results 20 weeks results [8]: -0.05 mmol/L
- [LDL] Mean CFB - 20 weeks results [9]: 0.00 mmol/L
- [LDL] Median CFB - 10 weeks results 20 weeks results [9]: -0.10 mmol/L
- [LDL] Mean CFB - 20 weeks results [10]: 0.00 mmol/L
- [LDL] Median CFB - 10 weeks results 20 weeks results [10]: 0.04 mmol/L
- [LDL] Mean CFB - 20 weeks results [11]: 0.10 mmol/L
- [LDL] Median CFB - 10 weeks results 20 weeks results [11]: 0.17 mmol/L
- [LDL] Mean CFB - 20 weeks results [12]: 0.10 mmol/L
- [LDL] Median CFB - 10 weeks results 20 weeks results [12]: 0.19 mmol/L
- [LDL] Mean CFB - 20 weeks results [13]: 0.01 mmol/L
- [LDL] Median CFB - 10 weeks results 20 weeks results [13]: -0.05 mmol/L
- [LDL] Mean CFB - 20 weeks results [14]: 0.01 mmol/L
- [LDL] Median CFB - 10 weeks results 20 weeks results [14]: 0.04 mmol/L
- [LDL] Mean CFB - 20 weeks results [15]: 0.037 mmol/L
- [LDL] Median CFB - 10 weeks results 20 weeks results [15]: 0.02 mmol/L
- [LDL] Mean CFB - 20 weeks results [16]: -0.017 mmol/L
- [LDL] Median CFB - 10 weeks results 20 weeks results [16]: 0.05 mmol/L
- [LDL] Mean CFB - 20 weeks results [17]: 0.085 mmol/L
- [LDL] Median CFB - 10 weeks results 20 weeks results [17]: 0.09 mmol/L
- [LDL] Mean CFB - 20 weeks results [18]: 0.077 mmol/L
- [LDL] Median CFB - 10 weeks results 20 weeks results [18]: 0.03 mmol/L
- [LDL] Mean CFB - 20 weeks results [19]: 0.105 mmol/L
- [LDL] Median CFB - 10 weeks results 20 weeks results [19]: 0.12 mmol/L
- [LDL] Mean CFB - 20 weeks results [20]: 0.222 mmol/L
- [LDL] Median CFB - 10 weeks results 20 weeks results [20]: 0.08 mmol/L
- [LDL] Mean CFB - 20 weeks results [21]: 0.205 mmol/L
- [LDL] Median CFB - 10 weeks results 20 weeks results [21]: 0.11 mmol/L
- [LDL] Mean CFB - 20 weeks results [22]: 2.17%
- [LDL] Median CFB - 20 weeks results [22]: −1.37%
- [LDL] Mean CFB - 20 weeks results [23]: 4.07%
- [LDL] Median CFB - 20 weeks results [23]: −1.98%
- [LDL] Mean CFB - 20 weeks results [24]: 2.59%
- [LDL] Median CFB - 20 weeks results [24]: 1.25%
- [LDL] Mean CFB - 20 weeks results [25]: 5.40%
- [LDL] Median CFB - 20 weeks results [25]: 7.46%
- [LDL] Mean CFB - 20 weeks results [26]: 5.91%
- [LDL] Median CFB - 20 weeks results [26]: 6.39%
